# Values joined by “and” are separate entries in the source; they are usually repeats but may differ in a detail not shown here. Equal values may be shown once.
# How the values were obtained:
# MRSA 33 = assay: MIC, agar incorporation method; conditions: agar incorporation
# [1] = Changes in MIC under different conditions: broth MIC; type: cell-based; conditions: strain not given
# Strep. pyog. ATCC 19615 = assay: MIC, agar incorporation method; conditions: agar incorporation
# MRSA 15187 = assay: MIC, agar incorporation method; conditions: agar incorporation
# G +ve bacteria = assay: Summary of in vitro activity (MIC); conditions: for MIC50 / MIC90: G +ve, Number 49
# Ent. faecalis ATCC 29212 = assay: MIC, agar incorporation method; conditions: agar incorporation
# S. pneumoniae = assay: Summary of in vitro activity (MIC); conditions: S. pneumoniae; for MIC50 / MIC90: Number 19
# S. aureus = assay: Summary of in vitro activity (MIC); conditions: S. aureus; for MIC50 / MIC90: Number 8
# E. faecalis = assay: Summary of in vitro activity (MIC); conditions: E. faecalis; for MIC50 / MIC90: Number 7
# [2] = Changes in MIC under different conditions: agar MIC; type: cell-based; conditions: strain not given
# MRSA 562 [3] = assay: In vivo activity against MRSA 562 (ED50); parameters: species or system Methicillin Resistant Staphylococcus aureus; conditions: PO; MRSA 562 infection
# VRE 6A (Ent. faecium 6A) = assay: MIC, agar incorporation method; conditions: agar incorporation
# S. pneum AB 34 = assay: MIC, agar incorporation method; conditions: agar incorporation
# MRSA 562 [4] = assay: MIC, agar incorporation method; conditions: for MIC: MRSA 562, Table 5; for MIC MRSA 562: agar incorporation, Table 1
# Strep. pne. ATCC 6303 = assay: MIC, agar incorporation method; conditions: agar incorporation
# S. aureus ATCC 25923 = assay: MIC, agar incorporation method; conditions: agar incorporation
# [5] = test system: Peptostreptococcus magnum; assay: Agar dilution MIC, anaerobes; type: cell-based; conditions: single isolates, anaerobic agar dilution
# Fusobacterium nucleatum = assay: Agar dilution MIC, anaerobes; type: cell-based; conditions: single isolates, anaerobic agar dilution
# anaerobic bacteria = assay: Agar dilution method for anaerobic bacteria, summary; type: cell-based; conditions: anaerobes; for MIC50 / MIC90: Wilkins Chalgren agar, 48 hour
# Prevotella intermedia = assay: Agar dilution MIC, anaerobes; type: cell-based; conditions: single isolates, anaerobic agar dilution
# [6] = test system: Peptostreptococcus micros; assay: Agar dilution MIC, anaerobes; type: cell-based; conditions: single isolates, anaerobic agar dilution
# [7] = test system: Peptostreptococcus asaccharolyticus; assay: Agar dilution MIC, anaerobes; type: cell-based; conditions: single isolates, anaerobic agar dilution
# P. acnes = assay: Agar dilution MIC, anaerobes; type: cell-based; conditions: single isolates, anaerobic agar dilution
# [8] = test system: Peptostreptococcus prevotii; assay: Agar dilution MIC, anaerobes; type: cell-based; conditions: single isolates, anaerobic agar dilution
# Prevotella bivia = assay: Agar dilution MIC, anaerobes; type: cell-based; conditions: single isolate, anaerobic agar dilution
# [9] = test system: Peptostreptococcus tetradius; assay: Agar dilution MIC, anaerobes; type: cell-based; conditions: single isolates, anaerobic agar dilution
# Porphyromonas gingivalis = assay: Agar dilution MIC, anaerobes; type: cell-based; conditions: single isolate, anaerobic agar dilution
# Clostridium camis = assay: Agar dilution MIC, anaerobes; type: cell-based; conditions: single isolates, anaerobic agar dilution
# Clostridium difficile = assay: Agar dilution MIC, anaerobes; type: cell-based; conditions: single isolates, anaerobic agar dilution
# [10] = test system: Prevotella melaninogenica; assay: Agar dilution MIC, anaerobes; type: cell-based; conditions: single isolates, anaerobic agar dilution
# Fusobacterium varium = assay: Agar dilution MIC, anaerobes; type: cell-based; conditions: single isolates, anaerobic agar dilution
# Fusobacterium necrogenes = assay: Agar dilution MIC, anaerobes; type: cell-based; conditions: single isolate, anaerobic agar dilution
# [11] = test system: Porphyromonas asaccharolytica; assay: Agar dilution MIC, anaerobes; type: cell-based; conditions: single isolate, anaerobic agar dilution
# Eubacterium leutum = assay: Agar dilution MIC, anaerobes; type: cell-based; conditions: single isolates, anaerobic agar dilution
# Clostridium perfringens = assay: microbe, parasite or virus in culture; type: cell-based; conditions: single isolates, anaerobic agar dilution
# [12] = test system: Prevotella (Bacteroides) disiens; assay: Agar dilution MIC, anaerobes; type: cell-based; conditions: single isolates, anaerobic agar dilution; listed as Quin/dal
# Bacteroides fragilis = assay: Agar dilution MIC, anaerobes; type: cell-based; conditions: single isolates, anaerobic agar dilution; listed as Quin/dal
# Fusobacterium montiferum = assay: Agar dilution MIC, anaerobes; type: cell-based; conditions: single isolates, anaerobic agar dilution; listed as Quin/dal
# [13] = test system: MRSE 879 adherent bacteria; assay: Sintered glass adherent bacteria model; conditions: MRSE 879, sintered glass adherent bacteria model
# MRSE 879 = assay: Broth MIC, MRSE 879; type: cell-based; conditions: MRSE 879
compound,measurement,setting,value
CC(=O)NC[C@H]1CN(c2ccc(N3CCC(N(C)C(=O)c4ccc([N+](=O)[O-])o4)CC3)c(F)c2)C(=O)O1 [Compound No. 44],MIC MRSA 33,MRSA 33,<0.1 µg/mL
same,Broth MIC +50% Sheep serum,[1],0.25 µg/mL
same,Broth MIC Normal MH broth,[1],<0.1 µg/mL
same,MIC S. pyogenes 19615,Strep. pyog. ATCC 19615,0.5 µg/mL
same,MIC MRSA 15187,MRSA 15187,<0.1 µg/mL
same,MIC50,G +ve bacteria,0.5 µg/mL
same,MIC90,G +ve bacteria,2 µg/mL
same,Geometric Mean of in vitro activity (MIC),G +ve bacteria; Gram + ve,0.31 µg/mL
same,MIC E. faecalis 29212,Ent. faecalis ATCC 29212,0.25 µg/mL
same,Geometric Mean of in vitro activity (MIC),S. pneumoniae,0.96 µg/mL
same,MIC50,S. pneumoniae,1 µg/mL
same,MIC90,S. pneumoniae,2 µg/mL
same,Geometric Mean of in vitro activity (MIC),S. aureus,0.11 µg/mL
same,MIC50,S. aureus,0.064 µg/mL
same,MIC90,S. aureus,0.25 µg/mL
same,Geometric Mean of in vitro activity (MIC),E. faecalis,0.11 µg/mL
same,MIC50,E. faecalis,0.064 µg/mL
same,MIC90,E. faecalis,0.25 µg/mL
same,Agar MIC,[2],<0.1 µg/mL
same,ED50 (mg/kg body weight) PO,MRSA 562 [3],>25 mg/kg body weight
same,MIC VRE 6A,VRE 6A (Ent. faecium 6A),<0.1 µg/mL
same,MIC S. pneum AB 34,S. pneum AB 34,2 µg/mL
same,MIC,MRSA 562 [4],<0.1 µg/mL
same,MIC MRSA 562,MRSA 562 [4],<0.1 µg/mL
same,MIC S. pneum 6303,Strep. pne. ATCC 6303,2 µg/mL
same,MIC S. aureus 25923,S. aureus ATCC 25923,0.25 µg/mL
Amox + clav,MIC Peptostreptococcus magnum,[5]; listed as Ax/clav,0.25 µg/mL and 0.5 µg/mL
same,MIC Fusobacterium nucleatum,Fusobacterium nucleatum,<=.125 μg/ml
same,Geometric Mean,anaerobic bacteria,0.423 µg/mL
same,MIC Range,anaerobic bacteria,0.062 to 32 µg/mL
same,MIC50,anaerobic bacteria,0.25 µg/mL
same,MIC90,anaerobic bacteria,8 µg/mL
same,MIC Prevotella intermedia,Prevotella intermedia,<=.125 μg/ml
same,MIC Peptostreptococcus micros,[6],<=.125 μg/ml
same,MIC Peptostreptococcus asaccharolyticus,[7],0.25 µg/mL
same,MIC P. acnes,P. acnes,0.25 µg/mL
same,MIC Peptostreptococcus prevotii,[8],<=.125 μg/ml
same,MIC Prevotella bivia,Prevotella bivia,<=.125 μg/ml
same,MIC Peptostreptococcus tetradius,[9],<=.125 μg/ml
same,MIC Porphyromonas gingivalis,Porphyromonas gingivalis,<=.125 μg/ml
same,MIC Clostridium camis,Clostridium camis,<=.125 μg/ml
same,MIC Clostridium difficile,Clostridium difficile,1 µg/mL
same,MIC Prevotella melaninogenica,[10],2 µg/mL
same,MIC Fusobacterium varium,Fusobacterium varium,1 µg/mL
same,MIC Fusobacterium necrogenes,Fusobacterium necrogenes,0.5 µg/mL
same,MIC Porphyromonas asaccharolytica,[11],<=.125 μg/ml
same,MIC Eubacterium leutum,Eubacterium leutum,1 µg/mL
same,MIC Clostridium perfringens,Clostridium perfringens,<=.125 μg/ml
"CC(=O)NC[C@H]1CN(c2ccc(N3CCN(C(=O)c4ccc([N+](=O)[O-])s4)CC3)c(F)c2)C(=O)O1.Cl [Compound No. 29, (S)-N[[3-[3-Fluoro-4-[N-1[4-(5-nitro-2-thienoyl)]piperazinyl]phenyl]2-oxo-5-oxazolidinyl]methyl]acetamide hydrochloride]",MIC MRSA 33,MRSA 33,<0.1 µg/mL
same,Broth MIC +50% Sheep serum,[1],0.5 µg/mL
same,Broth MIC Normal MH broth,[1],0.25 µg/mL
same,MIC S. pyogenes 19615,Strep. pyog. ATCC 19615,1 µg/mL
same,MIC MRSA 15187,MRSA 15187,<0.1 µg/mL
same,MIC50,G +ve bacteria,1 µg/mL
same,MIC90,G +ve bacteria,1 µg/mL
same,MIC E. faecalis 29212,Ent. faecalis ATCC 29212,1 µg/mL
same,MIC50,S. pneumoniae,1 µg/mL
same,MIC90,S. pneumoniae,1 µg/mL
same,MIC50,S. aureus,0.064 µg/mL
same,MIC90,S. aureus,0.25 µg/mL
same,MIC50,E. faecalis,1 µg/mL
same,MIC90,E. faecalis,1 µg/mL
same,Agar MIC,[2],<0.1 µg/mL
same,ED50 (mg/kg body weight) PO,MRSA 562 [3],>25 mg/kg body weight
same,MIC VRE 6A,VRE 6A (Ent. faecium 6A),0.5 µg/mL
same,MIC S. pneum AB 34,S. pneum AB 34,1 µg/mL
same,MIC,MRSA 562 [4],<0.1 µg/mL
same,MIC MRSA 562,MRSA 562 [4],<0.1 µg/mL
same,MIC S. pneum 6303,Strep. pne. ATCC 6303,1 µg/mL
same,MIC S. aureus 25923,S. aureus ATCC 25923,0.25 µg/mL
"CC(=O)NC[C@H]1CN(c2ccc(N3CCN(C(=O)c4ccoc4)CC3)c(F)c2)C(=O)O1 [Compound No. 08, (S)-N[[3-[3-Fluoro-4-[N-1[4-(3-furoyl)]piperazinyl]phenyl]2-oxo-5-oxazolidinyl]-methyl]acetamide]",MIC MRSA 33,MRSA 33,1 µg/mL
same,Broth MIC +50% Sheep serum,[1],4 µg/mL
same,Broth MIC Normal MH broth,[1],2 µg/mL
same,MIC S. pyogenes 19615,Strep. pyog. ATCC 19615,1 µg/mL
same,MIC MRSA 15187,MRSA 15187,1 µg/mL
same,MIC E. faecalis 29212,Ent. faecalis ATCC 29212,1 µg/mL
same,Agar MIC,[2],1 µg/mL
same,ED50 (mg/kg body weight) PO,MRSA 562 [3],25 mg/kg body weight
same,MIC VRE 6A,VRE 6A (Ent. faecium 6A),1 µg/mL
same,MIC S. pneum AB 34,S. pneum AB 34,4 µg/mL
same,MIC,MRSA 562 [4],1 µg/mL
same,MIC MRSA 562,MRSA 562 [4],1 µg/mL
same,MIC S. pneum 6303,Strep. pne. ATCC 6303,2 µg/mL
same,MIC S. aureus 25923,S. aureus ATCC 25923,2 µg/mL
Synercid,MIC Peptostreptococcus magnum,[5],0.25 µg/mL
same,Geometric Mean,anaerobic bacteria,1.614 µg/mL
same,MIC Range,anaerobic bacteria,0.062 to 16 µg/mL
same,MIC50,anaerobic bacteria,1 µg/mL
same,MIC90,anaerobic bacteria,16 µg/mL
same,MIC Prevotella intermedia,Prevotella intermedia,0.25 µg/mL
same,MIC Peptostreptococcus micros,[6]; listed as Quin/dal,0.5 µg/mL and 1 µg/mL
same,MIC Prevotella (Bacteroides) disiens,[12],>8 µg/mL and 8 µg/mL
same,MIC P. acnes,P. acnes,<=.125 μg/ml
same,MIC Bacteroides fragilis,Bacteroides fragilis,8 µg/mL and >8 µg/mL
same,MIC Peptostreptococcus prevotii,[8],0.25 µg/mL
same,MIC Prevotella bivia,Prevotella bivia,2 µg/mL
same,MIC Peptostreptococcus tetradius,[9],1 µg/mL
same,MIC Porphyromonas gingivalis,Porphyromonas gingivalis,0.25 µg/mL
same,MIC Clostridium camis,Clostridium camis,0.5 µg/mL
same,MIC Fusobacterium montiferum,Fusobacterium montiferum,8 µg/mL and >8 µg/mL and 4 µg/mL
same,concentration which would kill adherent bacteria,[13],2 µg/mL
same,MIC Clostridium difficile,Clostridium difficile,0.5 µg/mL
same,MIC Prevotella melaninogenica,[10]; listed as Quin/dal,1 µg/mL and 2 µg/mL
same,MIC Fusobacterium varium,Fusobacterium varium,>8 µg/mL
same,broth MIC,MRSE 879,0.5 µg/mL
same,MIC Fusobacterium necrogenes,Fusobacterium necrogenes,0.25 µg/mL
same,MIC Porphyromonas asaccharolytica,[11],<=.125 μg/ml
same,MIC Eubacterium leutum,Eubacterium leutum,0.25 µg/mL
same,MIC Clostridium perfringens,Clostridium perfringens,0.5 µg/mL

# From patent US20040254162A1, “Oxazolidinone derivatives as antimicrobials” (priority 2001, published 2004)
